Source: publication PMC6402482 (ACS chemical biology, 2018)

Assays:
[1] = tested on: rat primary cortical neurons; assay: Cytotoxicity in primary cortical neurons, LDH release at 24 h; assay type: cell-based; settings: n = 6/group
primary cortical neurons [2] = assay: Oxygen-glucose deprivation; assay type: cell-based, rat; settings: concentrations >100 nM
primary cortical neurons [3] = assay: Mitochondrial and cytosolic NAD+ 24 h after OGD; assay type: cell-based, rat; settings: 10 nM, n = 6/group
[4] = Glutamate-induced ferroptotic cell death in HT22 cells, LDH release at 24 h; assay type: cell-based, mouse; settings: 5 mM glutamate, LDH at 24 h, n = 5/group
[5] = Comet tail intensity assay of DNA damage and repair after H2O2; assay type: cell-based, mouse; settings: 10 µM, 200 µM H2O2, repair over 30 min
cancer cell lines = settings: most cancer cell lines; cited from earlier work
active PARP1 enzyme = active PARP1 enzyme (Homo sapiens, UniProt P09874); assay: PARP1 enzyme inhibition ex vivo; settings: 0–100 nM on active PARP1 enzyme (10 U), triplicate
active PARP1 enzyme, sequence (P09874 whole entry): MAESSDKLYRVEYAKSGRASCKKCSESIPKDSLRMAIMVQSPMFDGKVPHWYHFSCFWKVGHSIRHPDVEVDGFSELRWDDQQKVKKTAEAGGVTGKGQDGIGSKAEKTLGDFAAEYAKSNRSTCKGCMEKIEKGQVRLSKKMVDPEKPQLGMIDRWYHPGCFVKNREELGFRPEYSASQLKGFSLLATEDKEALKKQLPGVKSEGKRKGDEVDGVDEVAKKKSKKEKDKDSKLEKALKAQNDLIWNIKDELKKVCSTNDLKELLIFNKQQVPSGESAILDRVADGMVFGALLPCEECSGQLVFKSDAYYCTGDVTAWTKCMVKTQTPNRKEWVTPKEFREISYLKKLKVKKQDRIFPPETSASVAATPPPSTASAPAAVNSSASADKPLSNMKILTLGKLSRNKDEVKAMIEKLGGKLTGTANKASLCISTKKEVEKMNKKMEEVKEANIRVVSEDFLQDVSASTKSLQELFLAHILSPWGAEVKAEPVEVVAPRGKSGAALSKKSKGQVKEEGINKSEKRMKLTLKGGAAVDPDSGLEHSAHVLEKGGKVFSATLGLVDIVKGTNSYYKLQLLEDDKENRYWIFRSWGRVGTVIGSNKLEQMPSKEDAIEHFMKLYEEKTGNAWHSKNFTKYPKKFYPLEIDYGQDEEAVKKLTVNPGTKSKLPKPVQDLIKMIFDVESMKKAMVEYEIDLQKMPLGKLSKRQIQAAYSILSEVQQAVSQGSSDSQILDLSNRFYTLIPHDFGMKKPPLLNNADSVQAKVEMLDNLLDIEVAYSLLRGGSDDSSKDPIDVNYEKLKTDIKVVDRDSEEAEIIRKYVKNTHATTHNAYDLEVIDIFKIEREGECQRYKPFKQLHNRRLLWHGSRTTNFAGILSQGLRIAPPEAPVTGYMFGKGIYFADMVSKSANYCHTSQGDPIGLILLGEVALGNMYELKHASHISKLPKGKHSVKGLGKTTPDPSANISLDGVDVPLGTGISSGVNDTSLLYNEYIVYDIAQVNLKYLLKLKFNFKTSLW

Question: With C[C@@]1(c2nc3c(C(N)=O)cccc3[nH]2)CCCN1 [veliparib, 2-[(S)-2-methylpyrrolidin-2-yl]-1H-benzimidazole-4-carboxamide] as the compound, how does the “Concentration at which neurotoxicity (defined as >10% cell death) was seen” value [1] read?
Answer: 1000 nM

Question: What about the “Protection against OGD at higher concentrations” value (primary cortical neurons [2]) of the same compound?
Answer: no additional protection

Question: What about the “Mitochondrial NAD+ stores after OGD” value (primary cortical neurons [3]) of the same compound?
Answer: preserved

Question: What about the “Inhibition of glutamate-induced ferroptosis” value [4] of the same compound?
Answer: inhibit glutamate-induced ferroptosis

Question: And the “Effect on DNA repair after H2O2” value [5]?
Answer: impeded DNA repair

Question: And the Tumoricidal concentration (cancer cell lines)?
Answer: > 100 µM

Question: And the “PARP1 inhibition, veliparib versus XJB-veliparib” value (active PARP1 enzyme)?
Answer: similar
